Measured values published in patent US20120065196A1, “AMIDE COMPOUNDS” (priority 2006, published 2012).
pIC50: −log10 of the molar value.

Biological target: T1, human DGAT1 (Homo sapiens, UniProt O75907)
T1 construct: (N); made in house; host or cells: Sf9 insect cells infected with recombinant baculovirus BAC-DGAT1; microsome fraction
T1 sequence (O75907 1-488): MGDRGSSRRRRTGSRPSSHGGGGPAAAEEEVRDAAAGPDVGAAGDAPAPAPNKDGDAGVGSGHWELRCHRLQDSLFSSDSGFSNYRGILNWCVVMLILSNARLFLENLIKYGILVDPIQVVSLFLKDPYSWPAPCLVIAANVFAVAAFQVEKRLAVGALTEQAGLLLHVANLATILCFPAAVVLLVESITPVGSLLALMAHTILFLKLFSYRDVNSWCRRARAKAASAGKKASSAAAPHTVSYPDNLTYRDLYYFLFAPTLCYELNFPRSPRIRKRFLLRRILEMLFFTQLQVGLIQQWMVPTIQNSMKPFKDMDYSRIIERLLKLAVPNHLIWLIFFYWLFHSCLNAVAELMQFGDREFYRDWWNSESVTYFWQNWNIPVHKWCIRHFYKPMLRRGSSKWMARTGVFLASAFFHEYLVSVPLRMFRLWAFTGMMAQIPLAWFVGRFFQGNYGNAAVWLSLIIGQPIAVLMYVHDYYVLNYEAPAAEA
Assay: Determination of DGAT inhibitory activity (triglyceride synthesis with DGAT1 high expression Sf9 microsome)
Assay type: biochemical
Conditions: 25 μM dioleoylglycerol, 25 μM [14C]-Oleoyl-CoA, 32° C., 20 min, read-out: hDGAT1 IC50
Protocol: Human DGAT1 gene was cloned by PCR using human adipocyte cDNA (Clontech, QUICK-Clone cDNA, human fat cell, cat #637220) as a template and, based on the DGAT1 gene information reported by Case, S. et al. (Proc. Natl. Acad. Sci. U.S.A. 95 (22), 13018-13023 (1998)), a nucleotide sequence (245-1711 of Genbank Accession No. NM_012079) encoding DGAT1 was amplified with the following PCR primer. The primer nucleotide sequence is shown below.
The PCR reaction was conducted using a KOD-plus kit (TOYOBO). The obtained PCR product was electrophoresed on agarose gel (1%), the DNA fragment amplified by PCR was recovered from the gel, and then digested with restriction enzymes EcoRI and SpeI. The DNA treated with the restriction enzymes was electrophoresed on agarose gel (1%), and the obtained DNA fragment was recovered and ligated with plasmid pFASTBAC1 (Invitrogen) digested with restriction enzymes EcoRI and SpeI to give expression plasmid pFB-DGAT1. The nucleotide sequence of the inserted fragment was confirmed and found to be identical with the nucleotide sequence of DGAT1 (245-1711 of Genbank Accession No. NM_012079). Furthermore, using BAC-TO-BAC Baculovirus Expression System (Invitrogen), recombinant baculovirus BAC-DGAT1 was prepared.
SF9 cells were sown at 1×10^6 cells/ml on Sf-900II SFM medium (1 L, Invitrogen) containing 10% fetal calf serum (Trace), 50 mg/L gentamicin (Invitrogen) and 0.1% Pluronic F-68 (Invitrogen), and shaking culture was performed using a 2 L volume Erlenmeyer flask at 27° C., 100 rpm. After culturing for 24 hrs, recombinant baculovirus BAC-DGAT1 (6.7 mL) was added, and the mixture was further cultured for 3 days. The culture medium was centrifuged at 2,000 rpm for 5 min to give virus-infected cells. The infected cells were washed with a phosphate buffered saline (Invitrogen), centrifuged under the same conditions, and the cells were preserved at −80° C. The cryopreserved cells were thawed in ice, suspended in buffer A (50 mM Tris buffer (30 mL, pH 7.4) containing 20% glycerol, 0.15 M NaCl) supplemented with Complete Protease Inhibitor (Boehringer), and ruptured 3 times with a Polytron homogenizer (Kinematica) at 20,000 rpm for 30 sec. The Sf9 microsome fractions were obtained by a conventional method and cryopreserved at −80° C. as a DGAT1 high expression Sf9 microsome.
As a DGAT1 reaction buffer, a solution having a composition of 100 mM Tris-HCl (pH 7.5), 250 mM sucrose, 150 mM MgCl2, 0.01% bovine serum albumin (BSA) was used. Using this buffer, a given concentration of the test compound and a composition (100 μl) of 25 μM dioleoylglycerol, 25 μM [^14C]-Oleoyl-CoA, 5 μg protein/ml DGAT1 high expression Sf9 microsome, and 1% acetone were subjected to a triglyceride synthesis reaction at 32° C. for 20 min. A mixture of 300 μL of chloroform:methanol (=1:2) was added to the reaction mixture to quench the reaction. The reaction mixture was sufficiently mixed and distilled water (200 μL) was added to partition the mixture between a chloroform layer (lower layer) and an aqueous layer (upper layer). The chloroform layer (50 μL) was spotted on a thin layer chromatography silica gel plate (TLC plate, Merck) and developed with a solvent (n-hexane:diethyl ether:ethyl acetate:acetic acid=255:30:15:0.6). The developed TLC plate was dried, contacted with a BAS imaging plate (manufactured by FUJIFILM) and measured with BAS2500 (manufactured by FUJIFILM) 16 hr later to numerically show the amount of [^14C]-triglyceride (TG amount) produced during the reaction. The inhibitory rate was calculated by the following formula:
Inhibitory rate (%)=(1−(TG amount with addition of test compound−blank TG amount)/(control TG amount−blank TG amount))×100 […]

SMILES | pIC50
CC(C)C1CN(C(=O)NCCNC(=O)c2cn(-c3ccccc3)nc2C(F)(F)F)CC1C(=O)c1ccccc1 (stereo not shown) [Example E193, N-(2-(3-benzoyl-4-isopropylpyrrolidine-1-carboxamido)ethyl)-1-phenyl-3-(trifluouromethyl)-1H-pyrazole-4-carboxamide] | 5.00 to 6.00
O=C(NCCNC(=O)[C@H]1CC[C@H](C(=O)c2ccccc2)CC1)c1cn(-c2ccccc2)nc1C(F)(F)F [Example E65, N-(2-(trans-4-benzoylcyclohexanecarboxamido)ethyl)-1-phenyl-3-(trifluoromethyl)-1H-pyrazole-4-carboxamide] | 7.00 to 8.00
CC(C)c1nnc([C@H]2CC[C@H](C(=O)NCCNC(=O)c3cn(-c4ccccc4Cl)nc3C(F)(F)F)CC2)o1 [Example E234, 1-(2-chlorophenyl)-N-(2-(trans-4-(5-isopropyl-1,3,4-oxadiazol-2-yl)cyclohexanecarboxamido)ethyl)-3-(trifluoromethyl)-1H-pyrazole-4-carboxamide] | 6.00 to 7.00
CC(C)c1nnc([C@H]2CC[C@H](C(=O)NCCNC(=O)c3cn(-c4ccccc4)nc3C(F)(F)F)N(C)C2)o1 (relative stereo) [Example E267, trans-5-(5-isopropyl-1,3,4-oxadiazol-2-yl)-1-methyl-N-(2-(1-phenyl-3-(trifluoromethyl)-1H-pyrazole-4-carboxamido)ethyl)piperidine-2-carboxamide] | 6.00 to 7.00
O=C(NCCNC(=O)C1CCN(S(=O)(=O)c2ccccc2)CC1)c1cn(-c2ccccc2)nc1C(F)(F)F [Example E34, N-(2-(1-phenyl-3-(trifluoromethyl)-1H-pyrazole-4-carboxamido)ethyl)-1-(phenylsulfonyl)piperidine-4-carboxamide] | 7.00 to 8.00
O=C(N[C@H]1CC[C@H](C(=O)NCCNC(=O)c2cn(-c3ccccc3)nc2C(F)(F)F)CC1)c1ccccc1 [Example E91, N-(2-(trans-4-Benzamidocyclohexanecarboxamido)ethyl)-1-phenyl-3-(trifluoromethyl)-1H-pyrazole-4-carboxamide] | 6.00 to 7.00
O=C(NCCNC(=O)[C@H]1CC[C@H](C(=O)NCCF)CC1)c1cn(-c2ccccc2)nc1C(F)(F)F [Example E165, trans-N1-(2-fluoroethyl)-N4-(2-(1-phenyl-3-(trifluoromethyl)-1H-pyrazole-4-carboxamido)ethyl)cyclohexane-1,4-dicarboxamide] | 6.00 to 7.00
CC(C)c1nnc([C@H]2CC[C@H](C(=O)NCCNC(=O)c3cn(-c4ccccc4F)c4ccccc34)CC2)o1 [Example E265, 1-(2-fluorophenyl)-N-(2-(trans-4-(5-isopropyl-1,3,4-oxadiazol-2-yl)cyclohexanecarboxamido)ethyl)-1H-indole-3-carboxamide] | 7.00 to 8.00
O=C(NCCNC(=O)C1CCC(c2ccccc2)CC1)c1cn(-c2ccccc2)nc1C(F)(F)F (stereo not shown) [Example E105, 1-phenyl-N-(2-(4-phenylcyclohexanecarboxamido)ethyl)-3-(trifluoromethyl)-1H-pyrazole-4-carboxamide] | > 8.00
O=C(NCCNC(=O)N1CCc2nc[nH]c2C1)c1cn(-c2ccccc2)nc1C(F)(F)F [Example E95, N-(2-(1-phenyl-3-(trifluoromethyl)-1H-pyrazole-4-carboxamido)ethyl)-6,7-dihydro-3H-imidazo[4,5-c]pyridine-5(4H)-carboxamide] | 6.00 to 7.00
O=C(NCCNC(=O)[C@H]1CC[C@H](c2nnc(-c3ccccc3)[nH]2)CC1)c1cn(-c2ccccc2)nc1C(F)(F)F [Example E229, 1-Phenyl-N-(2-(trans-4-(5-phenyl-4H-1,2,4-triazol-3-yl)cyclohexanecarboxamido)ethyl)-3-(trifluoromethyl)-1H-pyrazole-4-carboxamide] | 6.00 to 7.00

Continued, values first:

pIC50 | SMILES
7.00 to 8.00 | CC(C)CN(C)C(=O)[C@H]1CC[C@H](C(=O)NCCNC(=O)c2cn(-c3ccccc3)nc2C(F)(F)F)CC1 [Example E126, trans-N1-isobutyl-N-1-methyl-N4-(2-(1-phenyl-3-(trifluoromethyl)-1H-pyrazole-4-carboxamido)ethyl)cyclohexane-1,4-dicarboxamide]
7.00 to 8.00 | O=C(NCCNC(=O)N1CCC(C(=O)c2ccccc2)C1)c1cn(-c2ccccc2)nc1C(F)(F)F (stereo not shown) [Example E189, N-(2-(3-benzoylpyrrolidine-1-carboxamido)ethyl)-1-phenyl-3-(trifluoromethyl)-1H-pyrazole-4-carboxamide]
5.00 to 6.00 | CN(CCc1ccncc1)C(=O)NCCNC(=O)c1cn(-c2ccccc2)nc1C(F)(F)F [Example F1, N-(2-(3-Methyl-3-(2-(pyridin-4-yl)ethyl)ureido)ethyl)-1-phenyl-3-(trifluoromethyl)-1H-pyrazole-4-carboxamide]
6.00 to 7.00 | O=C(NCCNC(=O)[C@H]1CC[C@H](c2nc(-c3ccccc3)c[nH]2)CC1)c1cn(-c2ccccc2)nc1C(F)(F)F [Example E172, 1-Phenyl-N-(2-(trans-4-(4-phenyl-1H-imidazol-2-yl)cyclohexanecarboxamido)ethyl)-3-(trifluoromethyl)-1H-pyrazole-4-carboxamide]
7.00 to 8.00 | O=C(NCCNC(=O)C1CCc2nc(-c3ccccc3)sc2C1)c1cn(-c2ccccc2)nc1C(F)(F)F (stereo not shown) [Example E175, 2-phenyl-N-(2-(1-phenyl-3-(trifluoromethyl)-1H-pyrazole-4-carboxamido)ethyl)-4,5,6,7-tetrahydrobenzo[d]thiazole-6-carboxamide]
